Measured values taken from the Kinase Knowledgebase extract (Sharma et al. 2016).

How the values were obtained:
MAPK14 [1] = biological target: MAPK14 (UniProt Q16539); experiment: MAPK14 (CSBP) Binding Inhibition
MAPK14 [2] = biological target: MAPK14 (UniProt Q16539); experiment: TNF Inhibition (In Vivo Assay)

Sequence of MAPK14 (Q16539 whole entry, looked up): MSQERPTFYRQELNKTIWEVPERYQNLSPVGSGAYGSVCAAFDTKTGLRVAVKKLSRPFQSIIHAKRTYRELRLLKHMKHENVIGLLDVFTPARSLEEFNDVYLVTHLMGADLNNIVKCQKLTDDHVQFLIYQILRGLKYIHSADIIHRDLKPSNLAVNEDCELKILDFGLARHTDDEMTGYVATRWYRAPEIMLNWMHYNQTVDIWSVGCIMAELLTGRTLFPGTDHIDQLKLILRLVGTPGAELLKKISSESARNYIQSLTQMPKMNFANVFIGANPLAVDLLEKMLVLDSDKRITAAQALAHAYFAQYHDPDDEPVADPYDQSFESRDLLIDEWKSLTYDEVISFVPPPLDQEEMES

Structure (SMILES)	IC50 (MAPK14 [1]) [µM]	IC50 (MAPK14 [2]) [µM]
CC(C)Oc1nccc(-c2c(-c3ccc(F)cc3)ncn2C2CCC(O)CC2)n1 (stereo unspecified)	< 50	< 50
CSc1nccc(-c2c(-c3ccc(F)cc3)ncn2[C@H]2CC[C@H](O)CC2)n1	< 50	–
O=C1CCC(n2cnc(-c3ccc(F)cc3)c2-c2ccnc(O)n2)CC1	< 50	–
COc1nccc(-c2c(-c3ccc(F)cc3)ncn2[C@H]2CC[C@@](C)(O)CC2)n1.COc1nccc(-c2c(-c3ccc(F)cc3)ncn2[C@H]2CC[C@](C)(O)CC2)n1	< 50	< 50
CC(C)Oc1nccc(-c2c(-c3ccc(F)cc3)ncn2C2CCC(=O)CC2)n1	< 50	< 50
CSc1nccc(-c2c(-c3ccc(F)cc3)ncn2C2CCC(=O)CC2)n1	< 50	–
COc1nccc(-c2c(-c3ccc(F)cc3)ncn2C2CCC(=O)CC2)n1	< 50	< 50
